# Reference: US20140018340A1, “Insulin Mimetic Active Comprising Oxodiperoxo Vanadates and a Pharmaceutical Composition Obtained Thereof” (priority 2011, published 2014)
# What was measured:
# [1] = dose inducing insulin like activity, from cited reference; cited from earlier work
# [2] = tested on: Glut4 in 3T3-L1 adipocytes; test: In vitro assay of Glut 4 translocation (GFP-Glut4 transfected cells); assay type: cell-based; settings: GFP-Glut4 transfected 3T3-L1 adipocytes
Substance,Dose in-vitro [1],Glut4 translocation from cytosol to membrane [2]
pervanadate,1 mM,
insulin: the hormone which regulates the body's glucose level and metabolism,,gets translocated to the membrane on addition of insulin
